Results reported in article PMC5838106, “Cathelicidin promotes inflammation by enabling binding of self-RNA to cell surface scavenger receptors” (Scientific Reports, 2018).

Key:
Assay type in all cases: cell-based, human
NHEKs = test: Cytokine mRNA expression in NHEKs stimulated with cathelicidin peptide and dsRNA (quantitative real-time PCR); details: for inhibition of the expression of inflammatory cytokines induced by LL37 and U1 RNA: MDC 200 μM, Pitstop-2 25 μM, dynasore 80 μM for 30 minutes
THP1 cells = test: Cytokine expression in PMA-treated THP1 cells stimulated with cathelicidin peptide and U1 RNA; details: PMA-treated THP1; MDC 200 μM, Pitstop-2 25 μM, dynasore 80 μM for 30 minutes, LL37 3 μM and U1 RNA 12.5 μg/mL overnight; n = 3
Experimental: Figure 1 Inflammatory activity of cathelicidin can be dissociated from antimicrobial function (a) Transcriptomic analysis by RNASeq of primary cultures of normal human epidermal keratinocytes (NHEKs) treated with LL37 (2.5 μM) with or without U1 RNA (2.5 μg/mL) for 24 hours. Shown are gene sets induced > 2 fold over vehicle, and after treatment with LL37, U1 RNA, or the combination of LL37 + U1 RNA. (b) Gene Ontology analysis of gene sets from (a). The number of genes related to each biological process is indicated in parentheses. (c) Amino acid sequence of synthetic cathelicidin peptides used in this study. (d) Antimicrobial assay of cathelicidin peptides against group A streptococcus (GAS). GAS were incubated with various concentrations of each peptide (0–25 μM) for 6 hours, then surviving colonies counted after plating on Todd Hewitt Broth gel. (e) IFN-β1 mRNA abundance and (f) IL-6 mRNA abundance in NHEKs after treatment with cathelicidin peptides (2.5 μM) for 10 minutes, then stimulated with U1 RNA (2.5 μg/mL) for a further 6 hours. (n = 3). (g) IFN-β1 mRNA abundance and (h) IL-6 mRNA abundance in […] (PMA)-treated THP1 cells after treatment with cathelicidin peptides (3 μM) for 10 minutes, then stimulated with U1 RNA (12.5 μg/mL) overnight. (n = 3). Data presented are from one representative experiment of at least two independent experiments. Error bars are SEM of three biological replicates. *P < 0.05, **P < 0.01, ***P < 0.001 by two-way ANOVA with Bonferroni’s post-hoc test. See also Fig. S1.
Primary neonatal human epidermal keratinocytes (NHEKs) was purchased from ThermoFisher Scientific. NHEKs were grown in serum free EpiLife medium supplemented with 0.06 mM CaCl2, EpiLife Defined growth supplements (EDGS) (ThermoFisher Scientific) and antibiotics, and passage 3–5 cells were used for experiment. Cells at 60–80% confluence were starved overnight without EDGS prior to treatment. THP1 was purchased from American Type Culture Collection (ATCC) (Manassas, VA). THP1 was cultured in RPMI-1640 (Sigma) supplemented with 10% Hyclone fetal calf serum (Thermofisher Scientific), and antibiotics, and passage 3–5 cells were used for experiment. Cells at 60–80% confluence were differentiated by Phorbol 12-myristate 13-acetate (PMA, Sigma) for 24 hours and then starved overnight without Hyclone fetal calf serum prior to treatment.
RNA was isolated from NHEKs using Purelink RNA isolation columns (ThermoFisher Scientific) according to the manufacturer’s instructions. RNA was quantified using a Nanodrop spectrophotometer (ThermoFisher Scientific), and up to 500 ng of RNA was reverse-transcribed using the iScript cDNA synthesis kit (Bio-Rad, Irvine, CA). Quantitative real-time PCR reactions were run on a CFX96 real-time detection system (Bio-Rad) using gene-specific primers and TaqMan probes (ThermoFisher Scientific). PCR primers and probes are shown on Table S2.

scavenger receptors = test: Proximity ligation assay between U1 RNA and the indicated scavenger receptors; details: NHEKs, 4 °C, 1 hour; Fig. 3d
Experimental: Figure 3 Cathelicidin enables dsRNA to associate with scavenger receptors. (a) Proximity ligation assay for SR-B1 and U1 RNA. NHEKs were cultured with various cathelicidin peptides (2.5 μM) for 10 minutes, then with biotinylated U1 RNA (2.5 μg/mL) at 4 °C for 1 hour before physical proximity of SR-B1 and U1 RNA was determined using a fluorescence-based PLA that produces a red fluorescent signal. Nuclei (blue) are counterstained with DAPI. Scale bar represents 10 μm. (b) Signal count of (a) in 5 visual fields. (c) Proximity ligation assay as in (a) but reaction is detecting proximity of LL37 and SR-A6. Scale bar represents 100 μm. (d) Signal count of proximity ligation assay performed as in (a), but between U1 RNA and the indicated scavenger receptors, each count is PLA complexes observed in 5 visual fields. (e) Skin sections from healthy subject (control), or lesional skin from a psoriasis patient (Psoriasis) were fixed and PLA performed for LL37 and SR-B1. […]
NHEKs seeded into 8 chamber slides (Thermo Fisher Scientific) were incubated with various combination of U1 RNA, poly(I:C), cathelicidin peptides, and fucoidan for 1 hour at 4 °C allowing binding, but not internalization. […] Fluorescent PLA signals were evaluated using fluorescence microscopy (described above). Signals are counted by Duolink ImageTool software version 1.0.1.2 (Sigma-aldrich).

[1] = LL37 2.5 μM and U1 RNA 2.5 μg/mL 6 hours, n = 3

Row | Compound | inhibition of the expression of inflammatory cytokines induced by LL37 and U1 RNA (THP1 cells) | inhibition of the expression of inflammatory cytokines induced by LL37 and U1 RNA (NHEKs; [1]) | also measured
1 | pertussis toxin | – | – | effect on expression of IL-6 induced by LL37 and U1 RNA (NHEKs; pertussis toxin 0.5 μg/mL or WRW4 1 μM for 1 hour, then LL37 2.5 μM and U1 RNA 2.5 μg/mL 6 hours, n = 3): did not decrease
2 | O=C(N/N=C/c1ccc(O)c(O)c1)c1cc2ccccc2cc1O [dynasore] | significant inhibition | significant inhibition | –
3 | CN(C)c1cccc2c(S(=O)(=O)NCCCCCN)cccc12 [MDC, Monodansylcadaverine] | significant inhibition | significant inhibition | –
4 | O=C1NC(=NS(=O)(=O)c2cccc3ccccc23)S/C1=C\c1ccc(Br)cc1 [Pitstop-2^TM] | significant inhibition | significant inhibition | –
5 | Fucoidan | – | – | effect on LL37-dependent binding of U1 RNA to scavenger receptors (PLA) (scavenger receptors): significantly diminished binding; inhibition of the capacity of LL37 to induce cytokines combined with U1 RNA (NHEKs; various concentrations of fucoidan, LL37 2.5 μM and U1 RNA 2.5 μg/mL 6 hours): potently inhibited; inhibition of the capacity of LL37 to induce cytokines combined with poly(I:C) (NHEKs; various concentrations of fucoidan, LL37 2.5 μM and poly(I:C) 0.3 μg/mL 6 hours): potently inhibited
6 | Oc1ccc2ccccc2c1SSc1c(O)ccc2ccccc12 [IPA-3] | – | – | effect on IFN-β1 and IL-6 expression induced by LL37 and U1 RNA (NHEKs; IPA-3 2.8 nM for 30 minutes, LL37 2.5 μM and U1 RNA 2.5 μg/mL 6 hours, n = 3): did not inhibit
